From ChEMBL document CHEMBL4340567, “Generation of C5-desoxy analogs of tetrahydroisoquinoline alkaloids exhibiting potent DNA alkylating ability” (Bioorg Med Chem Lett, 2019)
The source made the active and inactive calls. No cut-off for these calls is given here.

What was measured:
[1] = Induction of alkylation in fluorescein-labelled 5'-GGG-3' double stranded DNA (unknown origin) at 100 uM incubated for 30 mins by EMSA relative to control
[2] = Induction of alkylation in fluorescein-labelled 5'-GGG-3' double stranded DNA (unknown origin) at 10 uM incubated for 30 mins by EMSA relative to control
[3] = Induction of alkylation in fluorescein-labelled 5'-GGG-3' double stranded DNA (unknown origin) at 2.5 uM incubated for 30 mins by EMSA relative to control
[4] = Induction of alkylation in fluorescein-labelled 5'-ATA-3' double stranded DNA (unknown origin) at 100 uM incubated for 30 mins by EMSA relative to control
[5] = Induction of alkylation in fluorescein-labelled 5'-GGG-3' double stranded DNA (unknown origin) incubated for 30 mins by EMSA relative to control
[6] = Binding affinity to fluorescein-labelled 5'-GGG-3' double stranded DNA (unknown origin) assessed as formation of compound-dsDNA oligomer complex at five equivalents incubated for 30 mins by EMSA relative to control
[7] = Induction of alkylation in fluorescein-labelled 5'-AGC-3' double stranded DNA (unknown origin) at 100 uM incubated for 30 mins by EMSA relative to control
[8] = Induction of alkylation in fluorescein-labelled 5'-CGG-3' double stranded DNA (unknown origin) at 100 uM incubated for 30 mins by EMSA relative to control
[9] = Induction of alkylation in fluorescein-labelled 5'-GGG-3' double stranded DNA (unknown origin) at 25 uM incubated for 30 mins by EMSA relative to control
[10] = Induction of alkylation in fluorescein-labelled 5'-GGG-3' double stranded DNA (unknown origin) at 5 uM incubated for 30 mins by EMSA relative to control
[11] = Induction of alkylation in fluorescein-labelled 5'-AGT-3' double stranded DNA (unknown origin) at 100 uM incubated for 30 mins by EMSA relative to control
[12] = Induction of alkylation in fluorescein-labelled 5'-GGG-3' double stranded DNA (unknown origin) at 50 uM incubated for 30 mins by EMSA relative to control
[13] = Induction of alkylation in fluorescein-labelled 5'-GGC-3' double stranded DNA (unknown origin) at 100 uM incubated for 30 mins by EMSA relative to control
[14] = Binding affinity to FAM-labelled 5'-GGG-3' double stranded DNA (unknown origin) assessed as migration of compound from 5'-AGT-3' to 5'-GGC-3' at 100 uM incubated for 30 mins by EMSA
[15] = Reversible binding affinity to fluorescein-labelled 5'-GGG-3' double stranded DNA (unknown origin) at 100 uM incubated for 30 mins in presence of KCN by EMSA

Activity [1]	Activity [4]	Activity [7] [%]	Activity [8] [%]	Activity [11]	Activity [13] [%]	Compound	other results
86%	–	–	–	–	–	C=CCOC(=O)N[C@@H](C)C(=O)NC[C@H]1c2c(cc(C)c(OC)c2O)C[C@H]2[C@H]3c4c(cc(C)c(OC)c4O)C[C@@H]([C@H](C#N)N12)N3C	–
22%	–	–	–	–	–	COc1c(C)cc2c(c1O)[C@@H]1[C@@H]3Cc4cc(C)c(OC)c(O)c4[C@H](CNC(=O)[C@H](C)NC(=O)OCC4c5ccccc5-c5ccccc54)N3[C@@H](C#N)[C@H](C2)N1C	–
> 90%	inactive	80	63	36%	94	COc1c(C)cc2c(c1O)[C@@H]1[C@@H]3Cc4cc(C)c(OC)c(O)c4[C@H](CNC(=O)[C@H](C)N)N3[C@@H](C#N)[C@H](C2)N1C	Activity [2]: 85%; Activity [3]: 10%; Activity [5]: Dose-dependent effect; Activity [6]: > 95%; Activity [9]: > 95%; Activity [10]: 41%; Activity [12]: > 95%; Activity [14]: Active; Activity [15]: Active
inactive	–	–	–	–	–	CCCCCCCCC/C=C/COC(=O)N[C@@H](C)C(=O)NC[C@H]1c2c(cc(C)c(OC)c2O)C[C@H]2[C@H]3c4c(cc(C)c(OC)c4O)C[C@@H]([C@H](C#N)N12)N3C	–
31%	inactive	17	33	inactive	53	COC1=C(C)C(=O)C2=C(C1=O)[C@H](CNC(=O)[C@H](C)N)N1[C@@H](C#N)[C@@H]3Cc4cc(C)c(OC)c(O)c4[C@H]([C@@H]1C2)N3C	–
